In paper PMC6407917, “Identification of GSK3186899/DDD853651 as a Preclinical Development Candidate for the Treatment of Visceral Leishmaniasis” (Journal of Medicinal Chemistry, 2018):

Experiments:
Experiment in all cases: biochemical
Parameters in all cases: species or system HEK293/K-562/placenta mixed human extract; Kinobeads chemoproteomic competition binding, quantified by TMT LC-MS/MS, dose response up to 20 uM
TAOK3 = TAOK3 (Homo sapiens, UniProt Q9H2K8)
NEK2 = NEK2 (Homo sapiens, UniProt P51955)
PRKD2 = PRKD2 (Homo sapiens, UniProt Q9BZL6)
Chain of PRKD2 (Q9BZL6 whole entry): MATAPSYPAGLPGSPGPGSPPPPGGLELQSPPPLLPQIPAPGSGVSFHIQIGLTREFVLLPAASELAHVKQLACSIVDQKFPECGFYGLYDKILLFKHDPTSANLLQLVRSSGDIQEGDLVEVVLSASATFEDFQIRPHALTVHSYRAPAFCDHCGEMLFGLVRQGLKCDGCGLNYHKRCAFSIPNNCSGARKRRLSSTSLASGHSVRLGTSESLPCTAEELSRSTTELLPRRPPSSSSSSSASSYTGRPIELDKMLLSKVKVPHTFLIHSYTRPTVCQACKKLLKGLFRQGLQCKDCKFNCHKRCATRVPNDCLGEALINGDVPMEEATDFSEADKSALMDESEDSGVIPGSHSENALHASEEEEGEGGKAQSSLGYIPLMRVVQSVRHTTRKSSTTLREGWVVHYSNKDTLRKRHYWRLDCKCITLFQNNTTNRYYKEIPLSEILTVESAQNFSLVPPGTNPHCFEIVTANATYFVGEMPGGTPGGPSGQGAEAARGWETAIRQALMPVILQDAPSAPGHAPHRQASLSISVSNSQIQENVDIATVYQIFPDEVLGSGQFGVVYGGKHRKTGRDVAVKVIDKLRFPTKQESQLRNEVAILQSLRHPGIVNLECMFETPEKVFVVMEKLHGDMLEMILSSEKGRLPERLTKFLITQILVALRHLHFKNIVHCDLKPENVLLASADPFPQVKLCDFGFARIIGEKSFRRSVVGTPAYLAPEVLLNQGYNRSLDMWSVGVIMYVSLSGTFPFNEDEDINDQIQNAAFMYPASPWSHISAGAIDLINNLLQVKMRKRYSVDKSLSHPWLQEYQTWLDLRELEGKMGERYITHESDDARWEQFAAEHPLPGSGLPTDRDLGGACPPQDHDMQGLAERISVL

PIK3R4 = PIK3R4 (Homo sapiens, UniProt Q99570)
MAP3K6 = MAP3K6 (Homo sapiens, UniProt O95382)
Chain of MAP3K6 (O95382 whole entry): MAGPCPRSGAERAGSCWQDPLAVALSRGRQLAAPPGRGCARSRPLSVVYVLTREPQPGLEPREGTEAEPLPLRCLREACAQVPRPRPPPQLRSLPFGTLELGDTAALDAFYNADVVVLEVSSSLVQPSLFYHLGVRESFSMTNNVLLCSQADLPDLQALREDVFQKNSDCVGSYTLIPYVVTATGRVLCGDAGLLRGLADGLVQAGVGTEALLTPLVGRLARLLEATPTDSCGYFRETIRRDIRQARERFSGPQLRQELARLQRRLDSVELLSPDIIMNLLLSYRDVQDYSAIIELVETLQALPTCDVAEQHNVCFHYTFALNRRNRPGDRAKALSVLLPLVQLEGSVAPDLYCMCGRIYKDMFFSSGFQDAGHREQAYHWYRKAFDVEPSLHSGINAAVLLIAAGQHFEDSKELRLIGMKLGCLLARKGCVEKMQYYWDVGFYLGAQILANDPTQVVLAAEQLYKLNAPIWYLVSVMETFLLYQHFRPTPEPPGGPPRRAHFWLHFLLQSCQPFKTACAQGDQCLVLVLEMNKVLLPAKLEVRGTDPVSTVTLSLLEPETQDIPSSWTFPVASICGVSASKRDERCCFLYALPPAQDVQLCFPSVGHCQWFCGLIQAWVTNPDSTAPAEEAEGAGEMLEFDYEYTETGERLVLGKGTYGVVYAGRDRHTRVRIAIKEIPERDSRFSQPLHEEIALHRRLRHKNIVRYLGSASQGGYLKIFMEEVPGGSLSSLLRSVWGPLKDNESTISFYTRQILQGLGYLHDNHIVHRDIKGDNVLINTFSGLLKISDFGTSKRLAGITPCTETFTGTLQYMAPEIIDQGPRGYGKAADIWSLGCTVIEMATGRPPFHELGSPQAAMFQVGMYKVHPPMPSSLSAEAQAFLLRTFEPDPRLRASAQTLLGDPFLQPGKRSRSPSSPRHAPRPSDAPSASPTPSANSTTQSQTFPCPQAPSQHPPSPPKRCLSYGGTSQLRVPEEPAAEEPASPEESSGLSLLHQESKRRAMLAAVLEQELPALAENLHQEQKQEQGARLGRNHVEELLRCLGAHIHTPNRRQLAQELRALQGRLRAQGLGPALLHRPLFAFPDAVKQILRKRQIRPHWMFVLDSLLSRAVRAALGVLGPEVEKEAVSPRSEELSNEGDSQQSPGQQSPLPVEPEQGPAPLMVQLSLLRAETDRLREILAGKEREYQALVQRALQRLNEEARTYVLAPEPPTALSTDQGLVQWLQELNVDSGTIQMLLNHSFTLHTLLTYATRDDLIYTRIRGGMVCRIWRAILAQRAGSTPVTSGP

FN3K = FN3K (Homo sapiens, UniProt Q9H479)
HIPK1 = HIPK1 (Homo sapiens, UniProt Q86Z02)
MAPK11 = MAPK11 (Homo sapiens, UniProt Q15759)
IKBKB = IKBKB (Homo sapiens, UniProt O14920)
Chain of IKBKB (O14920 whole entry): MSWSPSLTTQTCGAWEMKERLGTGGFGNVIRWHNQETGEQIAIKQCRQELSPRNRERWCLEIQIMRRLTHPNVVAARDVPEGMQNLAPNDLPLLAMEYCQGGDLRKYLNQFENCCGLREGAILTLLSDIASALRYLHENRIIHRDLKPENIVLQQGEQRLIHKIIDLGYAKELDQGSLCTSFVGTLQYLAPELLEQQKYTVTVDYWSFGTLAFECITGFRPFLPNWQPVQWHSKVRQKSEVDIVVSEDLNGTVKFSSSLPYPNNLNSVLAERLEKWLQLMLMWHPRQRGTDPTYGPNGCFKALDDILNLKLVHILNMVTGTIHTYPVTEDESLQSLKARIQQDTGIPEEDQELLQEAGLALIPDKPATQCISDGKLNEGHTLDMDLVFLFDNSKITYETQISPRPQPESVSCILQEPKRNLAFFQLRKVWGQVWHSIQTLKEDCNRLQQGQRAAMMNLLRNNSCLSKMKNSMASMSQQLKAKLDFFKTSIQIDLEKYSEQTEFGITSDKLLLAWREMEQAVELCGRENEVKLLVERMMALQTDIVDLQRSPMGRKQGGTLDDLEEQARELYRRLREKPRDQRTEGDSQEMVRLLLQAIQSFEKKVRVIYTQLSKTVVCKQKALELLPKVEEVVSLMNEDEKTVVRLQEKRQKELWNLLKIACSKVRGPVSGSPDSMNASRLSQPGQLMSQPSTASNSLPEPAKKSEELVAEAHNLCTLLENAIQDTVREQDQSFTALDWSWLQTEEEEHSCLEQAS

RAF1 = RAF1 (Homo sapiens, UniProt P04049)
CHUK = CHUK (Homo sapiens, UniProt O15111)
Chain of CHUK (O15111 whole entry): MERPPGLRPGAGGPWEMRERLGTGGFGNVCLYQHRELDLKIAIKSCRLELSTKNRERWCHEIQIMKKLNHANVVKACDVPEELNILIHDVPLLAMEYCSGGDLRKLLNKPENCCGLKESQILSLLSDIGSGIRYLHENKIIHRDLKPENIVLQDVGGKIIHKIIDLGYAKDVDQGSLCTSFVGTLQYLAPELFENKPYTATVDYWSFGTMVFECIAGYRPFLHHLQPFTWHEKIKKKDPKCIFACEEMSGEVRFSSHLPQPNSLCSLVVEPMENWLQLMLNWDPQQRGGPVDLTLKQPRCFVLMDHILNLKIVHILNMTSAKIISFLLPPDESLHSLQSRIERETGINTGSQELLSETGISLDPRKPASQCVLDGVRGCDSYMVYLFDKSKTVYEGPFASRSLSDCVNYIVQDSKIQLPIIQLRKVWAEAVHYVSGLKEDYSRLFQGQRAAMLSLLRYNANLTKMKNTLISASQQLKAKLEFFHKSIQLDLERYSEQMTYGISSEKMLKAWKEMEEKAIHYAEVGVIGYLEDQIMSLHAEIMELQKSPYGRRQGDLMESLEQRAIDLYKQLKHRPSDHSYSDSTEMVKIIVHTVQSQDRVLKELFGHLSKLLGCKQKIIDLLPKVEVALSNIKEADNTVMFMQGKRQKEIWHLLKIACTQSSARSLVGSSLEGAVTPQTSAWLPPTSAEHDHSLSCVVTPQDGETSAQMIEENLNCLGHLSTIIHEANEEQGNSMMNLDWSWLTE

CSNK2A1 = CSNK2A1 (Homo sapiens, UniProt P68400)
Chain of CSNK2A1 (P68400 whole entry): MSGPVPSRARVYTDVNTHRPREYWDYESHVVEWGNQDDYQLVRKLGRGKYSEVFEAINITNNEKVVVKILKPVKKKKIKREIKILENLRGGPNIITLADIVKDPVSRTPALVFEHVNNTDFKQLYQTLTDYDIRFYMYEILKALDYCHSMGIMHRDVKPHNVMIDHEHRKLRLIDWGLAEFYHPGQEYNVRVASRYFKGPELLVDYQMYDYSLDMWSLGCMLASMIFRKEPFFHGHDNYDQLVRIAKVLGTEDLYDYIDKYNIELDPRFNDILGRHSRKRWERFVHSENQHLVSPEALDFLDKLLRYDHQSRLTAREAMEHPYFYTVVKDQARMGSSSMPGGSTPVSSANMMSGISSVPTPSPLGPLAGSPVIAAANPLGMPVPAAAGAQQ

STRADA = STRADA (Homo sapiens, UniProt Q7RTN6)
NEK1 = NEK1 (Homo sapiens, UniProt Q96PY6)
PIM3 = PIM3 (Homo sapiens, UniProt Q86V86)
RIPK4 = RIPK4 (Homo sapiens, UniProt P57078)
Chain of RIPK4 (P57078 whole entry): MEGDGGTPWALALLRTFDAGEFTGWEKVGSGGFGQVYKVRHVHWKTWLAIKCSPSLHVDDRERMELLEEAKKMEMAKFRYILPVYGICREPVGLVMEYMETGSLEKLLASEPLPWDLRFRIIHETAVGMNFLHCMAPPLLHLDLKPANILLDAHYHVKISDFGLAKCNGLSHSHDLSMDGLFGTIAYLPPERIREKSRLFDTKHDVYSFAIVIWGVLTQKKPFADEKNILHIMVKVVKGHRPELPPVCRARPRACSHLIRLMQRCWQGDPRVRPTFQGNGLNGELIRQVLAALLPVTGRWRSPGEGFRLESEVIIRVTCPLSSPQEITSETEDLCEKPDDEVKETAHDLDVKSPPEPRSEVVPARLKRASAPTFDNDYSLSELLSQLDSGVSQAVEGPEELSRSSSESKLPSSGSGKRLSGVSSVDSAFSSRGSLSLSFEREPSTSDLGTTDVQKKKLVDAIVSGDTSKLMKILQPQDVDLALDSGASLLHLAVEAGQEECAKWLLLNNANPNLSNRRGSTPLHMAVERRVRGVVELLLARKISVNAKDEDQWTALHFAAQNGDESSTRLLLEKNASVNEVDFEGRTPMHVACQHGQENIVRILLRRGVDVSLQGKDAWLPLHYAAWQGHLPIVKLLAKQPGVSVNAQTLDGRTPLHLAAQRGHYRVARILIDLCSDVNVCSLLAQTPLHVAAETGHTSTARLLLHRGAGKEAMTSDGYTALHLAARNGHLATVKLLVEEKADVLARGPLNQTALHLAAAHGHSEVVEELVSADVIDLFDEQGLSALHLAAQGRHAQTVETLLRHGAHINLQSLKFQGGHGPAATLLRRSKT

NRK = NRK (Homo sapiens, UniProt Q7Z2Y5)
MERTK = MERTK (Homo sapiens, UniProt Q12866)
BUB1 = BUB1 (Homo sapiens, UniProt O43683)
SERPINB2 = SERPINB2 (Homo sapiens, UniProt P05120)
STK35 = STK35 (Homo sapiens, UniProt Q8TDR2)

Measured: IC50

COc1nc(N[C@H]2CC[C@H](NS(=O)(=O)CC(C)C)CC2)nc2[nH]nc(N3CCOC[C@H]3C)c12 [compound 39, N-(trans-4-((4-Methoxy-3-((R)-3-methylmorpholino)-1H-pyrazolo[3,4-d]pyrimidin-6-yl)amino)cyclohexyl)-2-methylpropane-1-sulfonamide]
≥ 20 µM: all assays above
